The target in this assay is T1, acetylcholine muscarinic M1 receptor (Homo sapiens, UniProt P11229).
T1 construct: expressed in transfected cells; host or cells: CHOnfat (CHO cells; also called CHOK1/hM1)
T1 sequence (P11229 1-460): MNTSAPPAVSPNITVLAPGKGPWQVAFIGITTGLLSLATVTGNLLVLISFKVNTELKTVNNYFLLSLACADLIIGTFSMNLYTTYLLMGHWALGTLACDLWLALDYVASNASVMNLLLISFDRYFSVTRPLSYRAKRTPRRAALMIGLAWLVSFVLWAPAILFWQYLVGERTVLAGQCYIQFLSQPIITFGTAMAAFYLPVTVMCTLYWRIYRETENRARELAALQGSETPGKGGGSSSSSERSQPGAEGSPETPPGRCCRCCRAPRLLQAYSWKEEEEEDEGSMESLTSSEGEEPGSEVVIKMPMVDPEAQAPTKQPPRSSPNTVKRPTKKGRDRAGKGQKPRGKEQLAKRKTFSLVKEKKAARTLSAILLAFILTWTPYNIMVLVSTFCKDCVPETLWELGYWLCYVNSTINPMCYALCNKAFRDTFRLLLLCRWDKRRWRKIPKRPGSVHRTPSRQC
Briefly: Muscarinic FLIPR intracellular calcium assay for M1 positive allosteric modulator activity in CHOnfat/hM1 cells. Type of assay: cell-based. As to conditions: 4 min preincubation, then EC20 acetylcholine (3 nM final), calculated from FLIPR values, read-out: IP Value (inflection point). As for the experimental part: The assay studies the effect of one or several concentrations of test compounds on basal or acetylcholine-stimulated Ca^2+ levels using FLIPR.
Compounds are prepared and subjected to a preincubation period of 4 min. Thereafter, a single EC20 concentration of acetylcholine is added to each well (3 nM final). The intracellular Ca^2+ level of each sample is measured and compared to an acetylcholine control to determine any modulatory activity.
Cells: CHOnfat/hM1, hM2, hM3 or hM4 cells are plated 24 hr before the assay at a density of 18,000 cells/well (100 μL) in a 384 well plate. CHOnfat/hM1 and CHOnfat/hM3 Growth Medium: 90% DMEM (Hi Glucose); 10% HI FBS; 2 mM L-glutamine; 0.1 mM NEAA; Pen-Strep; and 1 mg/ml Geneticin, are added. For M2Gqi5CHOnfat and M4Gqi5CHOnfat cells, an additional 600 ug/ml hygromycin is added.
Equipment: 384 well plate, 120 μL addition plate; 96-well Whatman 2 ml Uniplate Incubator, 37° C., 5% CO2; Skatron EMBLA-384 Plate Washer; Multimek Pipetting System; Genesis Freedom 200 System; Mosquito System; Temo Nanoliter Pipetting System; and FLIPR^384 Fluorometric Imaging Plate Reader System are used.
Buffers. Assay Buffer: Hanks Balanced Salt Solution, with 20 mM Hepes, 2.5 mM Probenecid (Sigma P-8761) first dissolved in 1 N NaOH, 1% Bovine Serum Albumin (Sigma A-9647). Dye Loading Buffer: Assay Buffer plus 1% Fetal Bovine Serum and Fluo-4AM/Pluronic Acid Mixture. 2 mM Fluo-4AM ester stock in DMSO (Molecular Probes F-14202) Concentration of 2 μM in buffer for a final concentration of 1 μM in Assay. 20% Pluronic Acid Solution stock, with concentration of 0.04% in Buffer, 0.02% in Assay.
65 μL of 2 mM Fluo-4AM are mixed with 130 μL of 20% Pluronic Acid. The resulting solution and 650 μL FBS is added to the assay buffer for a total volume of 65 mL. Positive Controls: 4-Br-A23187: 10 mM in DMSO; final concentration 10 μM. Acetylcholine: 10 mM in water, working stock at both 20 μM and 30 μM in assay buffer, final concentration of 10 μM. This is used to check the maximum stimulation of the CHOK1/hM1 cells. 20 μM (2×) acetylcholine is added in the preincubation part of the assay, and the 30 μM (3×) stock is added in the second part. (EC20)Acetylcholine: 10 mM in water, working stock of 9 nM (3×), and final concentration in assay is 3 nM. This is used after the preincubation with test compounds. Addition of the EC20 Acetylcholine to each well with a test compound will ascertain any modulator activity. 24 wells contain 3 nM Acetylcholine alone as a control.
Determining Activity of Putative Compounds:
Screening Plate Compounds are titrated in 96-well plates (columns 2-11), 100% DMSO, started at a concentration of 15 mM (150× stock concentration), and 3-fold serial dilutions using Genesis Freedom200 System. Four 96-well plates are combined into a 384-well plate using Mosquito Nanoliter Pipetting System by transferring 1 μl of serial diluted compounds to each well, and 1 mM acetylcholine (100× stock concentration) were added as a control. Using Temo, 49 μl assay buffer is added to each well of the 384-well plate right before assay.
In a 96-well Whatman 2 ml Uniplate, 9 nM Acetylcholine (3×) is pipetted into wells corresponding to the screening compounds, and into control wells. The 30 μM acetylcholine control (3×) is added into control wells, and the 3× agonist plate is transferred into a 384 well plate.
Cells are washed three times with 100 μL of buffer, leaving 30 μL of buffer in each well. Using Multimek, 30 μL of Dye Loading Buffer is added into each well and incubated at 37° C., 5% CO2 for up to one hr.
After 60 min, the cells are washed three times with 100 μL of buffer, leaving 30 μL of buffer in each well. The cell plate, screening plate, and agonist addition plates are placed on the platform in the FLIPR and the door closed. A signal test to check background fluorescence and basal fluorescence signal is performed. Laser intensity is adjusted if necessary. […]
Regarding `O=c1c2nn(Cc3ccc(-n4cccn4)cc3)c3c(Cl)cccc3c-2nn1[C@@H]1CCCC[C@H]1O` [Example 61], the EC50 was 42 nM. `C[C@@H]1CCOC[C@@H]1n1nc2c3ccccc3n(Cc3ccc(-n4cccn4)cc3)nc-2c1=O` (single isomer, unassigned) [Example 75, cis-2-[4-Methyltetrahydro-2H-pyran-3-yl]-5-[4-(1H-pyrazol-1-yl)benzyl]-2,5-dihydro-3H-pyrazolo[4,3-c]cinnoline-3-one]: the EC50 was 158 nM.

Regarding `O=c1c2nn(Cc3ccc(-n4cccn4)cc3)c3c(Cl)cccc3c-2nn1[C@H]1CCOC[C@@H]1O` (single isomer, unassigned) [Example 63, 6-Chloro-2-(trans-3-hydroxytetrahydro-2H-pyran-4-yl)-5-[4-(1H-pyrazol-1-yl)benzyl]-2,5-dihydro-3H-pyrazolo[4,3-c]cinnolin-3-one], the EC50 was 593 nM.

For the compound `C[C@H]1CCOC[C@@H]1n1nc2c3ccccc3n(Cc3ccc(-n4cccn4)cc3)nc-2c1=O` (single isomer, unassigned) [Example 72, trans-2-[4-Methyltetrahydro-2H-pyran-3-yl]-5-[4-(1H-pyrazol-1-yl)benzyl]-2,5-dihydro-3H-pyrazolo[4,3-c]cinnoline-3-one], the EC50 was 47 nM. Then `Cc1ccccc1-n1nc2c3ccccc3n(Cc3ccc(-n4ccnc4)nc3)nc-2c1=O` [Example 23, 5-{[6-(1H-Imidazol-1-yl)pyridine-3-yl]methyl}-2-(2-methylphenyl)-2,5-dihydro-3H-pyrazolo[4,3-c]cinnolin-3-one], with 748 nM; and `Cc1ccccc1-n1nc2c3ccccc3n(Cc3ccc(Br)cn3)nc-2c1=O` [Example 21, 5-[(5-Bromopyridin-2-yl)methyl]-2-(2-methylphenyl)-2,5-dihydro-3H-pyrazolo[4,3-c]cinnolin-3-one], with 2860 nM; and `Cc1nc(F)ccc1-n1nc2c3ccccc3n(Cc3ccc(-c4cnn(C)c4)nc3)nc-2c1=O` [Example 86, 2-(6-Fluoro-2-methylpyridin-3-yl)-5-{[6-(1-methyl-1H-pyrazol-4-yl)pyridin-3-yl]methyl}-2,5-dihydro-3H-pyrazolo[4,3-c]cinnolin-3-one], with 225 nM.

`O=c1c2nn(Cc3ccc(-n4cccn4)cc3)c3ccccc3c-2nn1-c1ccccc1F` [Example 1, 2-(2-Fluorophenyl)-5-{[4-(1H-pyrazol-1-yl)phenyl]methyl}-2,5-dihydro-3H-pyrazolo[4,3-c]cinnolin-3-one]: the EC50 is 28 nM.

For `CC1CCOCC1n1nc2c3ccccc3n(Cc3ccc(-n4cccn4)cc3)nc-2c1=O` (racemic) [Example 71, (±)-2-[cis,trans-4-methyltetrahydro-2H-pyran-3-yl]-5-[4-(1H-pyrazol-1-yl)benzyl]-2,5-dihydro-3H-pyrazolo[4,3-c]cinnolin-3-one], the EC50 is 89 nM. Then `O=c1c2nn(Cc3ccc(-n4cccn4)cc3)c3ccccc3c-2nn1CC(O)CO` (centres unmarked) [Example 11, 2-(2,3-Dihydroxypropyl)-5-[4-(1H-pyrazol-1-yl)benzyl]-2,5-dihydro-3H-pyrazolo[4,3-c]cinnolin-3-one], with 193 nM; and `Cc1ccccc1-n1nc2c3ccccc3n(Cc3ccc(-c4cnn(C)c4)nc3)nc-2c1=O` [Example 25, 2-(2-Methylphenyl)-5-{[6-(1-methyl-1H-pyrazol-4-yl)pyridine-3-yl]methyl}-2,5-dihydro-3H-pyrazolo[4,3-c]cinnolin-3-one], with 144 nM. Then `O=c1c2nn(Cc3ccc(-n4cccn4)cc3)c3c(Cl)cccc3c-2nn1[C@H]1CCOC[C@@H]1O` (single isomer, unassigned) [Example 62, 6-Chloro-2-(trans-3-hydroxytetrahydro-2H-pyran-4-yl)-5-[4-(1H-pyrazol-1-yl)benzyl]-2,5-dihydro-3H-pyrazolo[4,3-c]cinnolin-3-one], with 21 nM; and `Cc1ccccc1-n1nc2c3ccccc3n(Cc3ccc(N4CCOCC4)nc3)nc-2c1=O` [Example 81, 2-(2-Methylphenyl)-5-{[6-(morpholin-4-yl)pyridine-3-yl]methyl}-2,5-dihydro-3H-pyrazolo[4,3-c]cinnolin-3-one], with 1370 nM; and `Cc1ccc(-c2ccc(Cn3nc4c(=O)n(-c5cccc(C)c5C)nc-4c4ccccc43)cn2)cn1` [Example 90, 2-(2,3-Dimethylphenyl)-5-[(6′-methyl-2,3′-bipyridin-5-yl)methyl]-2,5-dihydro-3H-pyrazolo[4,3-c]cinnolin-3-one], with 29 nM. `N#Cc1cccc(F)c1-n1nc2c3ccccc3n(Cc3ccc(-n4cccn4)cc3)nc-2c1=O` [Example 13, 3-Fluoro-2-(3-oxo-5-{[4-(1H-pyrazol-1-yl)phenyl]methyl}-3,5-dihydro-2H-pyrazolo[4,3-c]cinnolin-2-yl)benzonitrile]: the EC50 was 14 nM. Then `C[C@@H]1CCOC[C@@H]1n1nc2c3ccccc3n(Cc3ccc(-n4cccn4)cc3)nc-2c1=O` (single isomer, unassigned) [Example 73, cis-2-[4-Methyltetrahydro-2,1-pyran-3-yl]-5-[4-(1H-pyrazol-1-yl)benzyl]-2,5-dihydro-3H-pyrazolo[4,3-c]cinnoline-3-one], with 771 nM; and `C[C@H]1CCOC[C@@H]1n1nc2c3ccccc3n(Cc3ccc(-n4cccn4)cc3)nc-2c1=O` (single isomer, unassigned) [Example 74], with 636 nM.
